For the assay, the system named is PGY-sRNA-26. As to the kind of experiment: In vivo delivery study of lipid-nucleic acid mixture (oral gavage, RT-qPCR of PGY-sRNA-26 in tissues). The following applies: for delivery efficacy over each tissue and blood tested (broad-spectrum delivery): all tissues and blood tested; for oral delivery of single-stranded sRNA nucleic acids into mouse intestinal tissue: intestine. On the set-up: species or system mouse. As to the method:
10 nmol of small RNA (as shown in Table 2) was dissolved in 400 μl of DEPC-treated water in a glass tube, 10 μl of the corresponding lipid stock solution was added such that the lipid mass in the system was 100 μg. The mixture was mixed thoroughly, heated in a 90° C. water bath for 15 minutes, and then cooled naturally to obtain the lipid nucleic acid mixture of lipid and small RNA.
C57BL/6 male mice, approximately 6 weeks old, weighing 20-24 g, were obtained from Beijing Vital River Laboratory Animal Technology Co., Ltd. The mice were housed in the SPF-grade animal facility at the Animal Center of the Institute of Basic Medical Sciences, Chinese Academy of Medical Sciences. The mice were fasted for 12 hours before gavage administration.
The resultant lipid nucleic acid mixture was orally administered to each mouse at a dose of 100 μg lipid: 10 nmol single-stranded 3′-methylated small RNA PGY-sRNA-26.
• 1) Blank group (n=4): mice were administered with 500 μl saline by gavage, this group served as a blank control; • 2) Free uptake group (n=4): mice were directly administered with small RNA PGY-sRNA-26 solution (10 nmol/mouse, 500 μl) by gavage, this group served as a negative control; • 3) Lipid-treated group (n=4): mice were administered with 500 μl lipid nucleic acid mixture prepared in step 2 by gavage.
After 12 hours of gavage administration, 500 μl blood from the eyeball of each mouse was sampled, added to 1.5 ml Trizol Reagent LS (purchased from Invitrogen), thoroughly mixed for lysis. 3 ml of Trizol Reagent LSwas added to tissue samples and homogenized for complete lysis, wherein the sampled tissues include heart, liver, spleen, lung, kidney, stomach, intestine, brain, blood, femur. RNA was extracted from 1 ml of the blood or the tissue lysate following the steps below: • Centrifuge at 4° C., 12,000 rpm for 5 min, discard the precipitate, transfer Trizol to a new centrifuge tube; • Add chloroform at 200 μL chloroform/mL Trizol, shake well, stand at room temperature for 5 min; • Centrifuge at 4° C., 12,000 rpm for 15 min; • Take the upper aqueous phase to another centrifuge tube, add isopropanol at 0.4 mL isopropanol/mL Trizol, mix well, and stand at low temperature for 10-20 min; • Centrifuge at 4° C., 12,000 rpm for 15 min, discard the supernatant, RNA precipitated at the bottom of the tube; • Add 1 mL of 75% ethanol, gently shake the centrifuge tube, suspend the precipitate; • Centrifuge at 4° C., 12,000 rpm for 15 min, discard the supernatant, add 1 mL of 75% ethanol, gently shake the centrifuge tube, suspend the precipitate; • Centrifuge at 4° C., 12,000 rpm for 15 min, discard the supernatant, air-dry at room temperature, dissolve RNA samples in 50 μL RNase-free H2O, measure OD value to quantify RNA concentration. 3.3 Reverse Transcription of sRNA to cDNA:
The reverse transcription system is as follows: Template RNA (200 ng/μL) 10 μL, 10×RT Buffer 2.0 μL, 25×dNTP Mix (100 mM) 0.8 μL, U6 RT stem-loop primer (10 μM) 2.0 μL, PGY-sRNA-26 RT stem-loop primer (10 μM) 2.0 μL, MultiScribe™ Reverse Transcriptase (50 U/μL) 1.0 μL, RNAse Inhibitor (40 U/μL) 1.0 μL, nuclease-free H2O 1.2 μL. After transient centrifugation, the reverse transcription system was placed in a PCR machine with the following reaction conditions: (1) 25° C., 10 min; (2) 37° C., 120 min; (3) 85° C., 5 min; (4) 4° C., stop reaction. After the reaction, add 20 μL RNAse-free ddH2O, adjust the final volume to 40 μL. The stem-loop primers used in this reverse transcription process were synthesized by Beijing Tianyi Huiyuan Biotechnology Co., Ltd. (U6 was used as a standard reference gene to calculate its relative expression, because U6 RT primer was used as a reference gene in relative quantification of RT-qPCR reactions for small RNA): […]
On the technique in general: In qPCR the cycle at which signal appears reflects the starting amount.

Where [1] appears, read: C57BL/6 mice, gavage, 100 μg lipid: 10 nmol PGY-sRNA-26, 12 hours.
Where [2] appears, read: C57BL/6 mice, gavage, 100 μg lipid: 10 nmol PGY-sRNA-26, 12 hours, blood.
Setting [3] is: C57BL/6 mice, gavage, 100 μg lipid: 10 nmol PGY-sRNA-26, 12 hours, femur.

The values below come from patent US20240293551A1, “USE OF ST-TYPE LIPID COMPOUNDS IN PREPARATION OF NUCLEIC ACID DELIVERY REAGENT AND RELATED PRODUCT” (INSTITUTE OF BASIC MEDICAL SCIENCES CHINESE ACADEMY OF …, priority 2021, published 2024).

As for `CC(=O)OCC(=O)[C@@]1(O)CC[C@H]2[C@@H]3CCC4=CC(=O)CC[C@]4(C)[C@H]3[C@@H](O)C[C@@]21C` [Lipid 582], under setting [1], the “delivery efficacy over each tissue and blood tested (broad-spectrum delivery)” value is reported as “exhibited the best delivery efficacy”; the “oral delivery of single-stranded sRNA nucleic acids into mouse brain tissue” value was “can effectively orally deliver”; the “oral delivery of single-stranded sRNA nucleic acids into mouse heart tissue” value is recorded as “can effectively orally deliver”; the “oral delivery of single-stranded sRNA nucleic acids into mouse intestinal tissue” value is given as “can effectively orally deliver”. Moreover, under setting [1], the “oral delivery of single-stranded sRNA nucleic acids into mouse kidney tissue” value is recorded as “can effectively orally deliver”, the “oral delivery of single-stranded sRNA nucleic acids into mouse liver tissue” value is recorded as “can effectively orally deliver”, the “oral delivery of single-stranded sRNA nucleic acids into mouse lung tissue” value is “can effectively orally deliver” and the “oral delivery of single-stranded sRNA nucleic acids into mouse spleen tissue” value was “can effectively orally deliver”. Further, under setting [1], the “oral delivery of single-stranded sRNA nucleic acids into mouse stomach tissue” value was “can effectively orally deliver”. In addition, the “oral delivery of single-stranded sRNA nucleic acids into mouse blood” value under setting [2] is reported as “can effectively orally deliver”. Also, under setting [3], the “oral delivery of single-stranded sRNA nucleic acids into mouse femur” value was “can effectively orally deliver”.
In the case of `CCCCCCCCCCCCCCCCCC(=O)O[C@H]1CC[C@@]2(C)C(=CC[C@H]3[C@@H]4CC[C@H]([C@H](C)CCCC(C)C)[C@@]4(C)CC[C@@H]32)C1` [Lipid 584], under setting [2], the “oral delivery of single-stranded sRNA nucleic acids into mouse blood” value is on record as “can effectively orally deliver”. Besides, under setting [1], the “oral delivery of single-stranded sRNA nucleic acids into mouse brain tissue” value is reported as “can effectively orally deliver”, the “oral delivery of single-stranded sRNA nucleic acids into mouse heart tissue” value is listed as “can effectively orally deliver”, the “oral delivery of single-stranded sRNA nucleic acids into mouse intestinal tissue” value is given as “can effectively orally deliver” and the “oral delivery of single-stranded sRNA nucleic acids into mouse liver tissue” value is recorded as “can effectively orally deliver”. Besides, under setting [1], the “oral delivery of single-stranded sRNA nucleic acids into mouse lung tissue” value is “can effectively orally deliver”, the “oral delivery of single-stranded sRNA nucleic acids into mouse spleen tissue” value is listed as “can effectively orally deliver” and the “oral delivery of single-stranded sRNA nucleic acids into mouse stomach tissue” value is “can effectively orally deliver”. The “oral delivery of single-stranded sRNA nucleic acids into mouse femur” value under setting [3] is reported as “can effectively orally deliver”.
Regarding `C[C@]12CC[C@H]3[C@@H](CCC4=CC(=O)CC[C@@]43C)[C@@H]1CC[C@@H]2O` [Lipid 579], for the setting “mouse, in vivo, po”, the “oral delivery of single-stranded sRNA nucleic acids into mouse blood” value is listed as “can effectively orally deliver” and the “oral delivery of single-stranded sRNA nucleic acids into mouse femur” value is “can effectively orally deliver”.
For the compound `CCCCCCCCCCCCCCCCC(=O)O[C@H]1CC[C@@]2(C)C(=CC[C@H]3[C@@H]4CC[C@H]([C@H](C)CCCC(C)C)[C@@]4(C)CC[C@@H]32)C1` [Lipid 565], the “oral delivery of single-stranded sRNA nucleic acids into mouse blood” value under setting [2] is on record as “can effectively orally deliver”. Besides, under setting [1], the “oral delivery of single-stranded sRNA nucleic acids into mouse brain tissue” value is reported as “can effectively orally deliver”, the “oral delivery of single-stranded sRNA nucleic acids into mouse heart tissue” value is listed as “can effectively orally deliver”, the “oral delivery of single-stranded sRNA nucleic acids into mouse intestinal tissue” value is given as “can effectively orally deliver” and the “oral delivery of single-stranded sRNA nucleic acids into mouse kidney tissue” value is given as “can effectively orally deliver”. Moreover, under setting [1], the “oral delivery of single-stranded sRNA nucleic acids into mouse liver tissue” value is on record as “can effectively orally deliver” and the “oral delivery of single-stranded sRNA nucleic acids into mouse stomach tissue” value is “can effectively orally deliver”. In addition, the “oral delivery of single-stranded sRNA nucleic acids into mouse femur” value under setting [3] is on record as “can effectively orally deliver”.
On to `C[C@]12CCC(=O)C=C1CC[C@@H]1[C@@H]2CC[C@@]2(C)[C@H]1CC[C@]2(O)C(=O)CO` [Lipid 549], for which, under setting [1], the “delivery efficacy over each tissue and blood tested (broad-spectrum delivery)” value was “exhibited the best delivery efficacy”; the “oral delivery of single-stranded sRNA nucleic acids into mouse brain tissue” value is “can effectively orally deliver”; the “oral delivery of single-stranded sRNA nucleic acids into mouse heart tissue” value is listed as “can effectively orally deliver”; the “oral delivery of single-stranded sRNA nucleic acids into mouse intestinal tissue” value is “can effectively orally deliver”. Also, under setting [1], the “oral delivery of single-stranded sRNA nucleic acids into mouse kidney tissue” value is “can effectively orally deliver”, the “oral delivery of single-stranded sRNA nucleic acids into mouse liver tissue” value was “can effectively orally deliver”, the “oral delivery of single-stranded sRNA nucleic acids into mouse lung tissue” value is listed as “can effectively orally deliver” and the “oral delivery of single-stranded sRNA nucleic acids into mouse spleen tissue” value is recorded as “can effectively orally deliver”. In addition, the “oral delivery of single-stranded sRNA nucleic acids into mouse stomach tissue” value under setting [1] was “can effectively orally deliver”. In addition, under setting [2], the “oral delivery of single-stranded sRNA nucleic acids into mouse blood” value was “can effectively orally deliver”. Moreover, under setting [3], the “oral delivery of single-stranded sRNA nucleic acids into mouse femur” value is “can effectively orally deliver”.
In the case of `C[C@H](/C=C/[C@H](C)C(C)(C)O)[C@H]1CC[C@H]2/C(=C/C=C3C[C@@H](O)C[C@H](O)C3)CCC[C@]12C` [Lipid 545], under setting [1], the “delivery efficacy over each tissue and blood tested (broad-spectrum delivery)” value is “exhibited the best delivery efficacy”; the “oral delivery of single-stranded sRNA nucleic acids into mouse brain tissue” value was “can effectively orally deliver”; the “oral delivery of single-stranded sRNA nucleic acids into mouse heart tissue” value is “can effectively orally deliver”; the “oral delivery of single-stranded sRNA nucleic acids into mouse intestinal tissue” value is on record as “can effectively orally deliver”. Under setting [1], the “oral delivery of single-stranded sRNA nucleic acids into mouse kidney tissue” value is given as “can effectively orally deliver”, the “oral delivery of single-stranded sRNA nucleic acids into mouse liver tissue” value is “can effectively orally deliver”, the “oral delivery of single-stranded sRNA nucleic acids into mouse lung tissue” value is “can effectively orally deliver” and the “oral delivery of single-stranded sRNA nucleic acids into mouse spleen tissue” value is “can effectively orally deliver”. In addition, the “oral delivery of single-stranded sRNA nucleic acids into mouse stomach tissue” value under setting [1] is listed as “can effectively orally deliver”. Also, the “oral delivery of single-stranded sRNA nucleic acids into mouse blood” value under setting [2] is given as “can effectively orally deliver”. Further, the “oral delivery of single-stranded sRNA nucleic acids into mouse femur” value under setting [3] is “can effectively orally deliver”.
With `C[C@]12CCC(=O)C=C1CC[C@@H]1[C@@H]2[C@@H](O)C[C@]2(C)C(=O)CC[C@@H]12` [Lipid 555], under setting [1], the “delivery efficacy over each tissue and blood tested (broad-spectrum delivery)” value is on record as “exhibited the best delivery efficacy”; the “oral delivery of single-stranded sRNA nucleic acids into mouse brain tissue” value was “can effectively orally deliver”; the “oral delivery of single-stranded sRNA nucleic acids into mouse heart tissue” value is “can effectively orally deliver”; the “oral delivery of single-stranded sRNA nucleic acids into mouse intestinal tissue” value is recorded as “can effectively orally deliver”. Under setting [1], the “oral delivery of single-stranded sRNA nucleic acids into mouse kidney tissue” value is on record as “can effectively orally deliver”, the “oral delivery of single-stranded sRNA nucleic acids into mouse liver tissue” value is on record as “can effectively orally deliver”, the “oral delivery of single-stranded sRNA nucleic acids into mouse lung tissue” value is reported as “can effectively orally deliver” and the “oral delivery of single-stranded sRNA nucleic acids into mouse spleen tissue” value is “can effectively orally deliver”. Further, the “oral delivery of single-stranded sRNA nucleic acids into mouse stomach tissue” value under setting [1] is “can effectively orally deliver”. Also, the “oral delivery of single-stranded sRNA nucleic acids into mouse blood” value under setting [2] was “can effectively orally deliver”. Also, the “oral delivery of single-stranded sRNA nucleic acids into mouse femur” value under setting [3] is listed as “can effectively orally deliver”.
